According to article PMC8480901 (PLoS ONE, 2021):
Several values for one entry are separate records, joined by “and”; a condition that tells them apart may be missing. Equal values may be shown once.

Test system: human PBMCs
Assay: LPS-induced cytokine and chemokine levels in human PBMC supernatant (Luminex, ELISA)
Type: cell-based
Conditions: for IL-1β % reduction / IL-1β [pg/mL], Mean / IL-1β [pg/mL], individual value / IL-6 % reduction / IL-6 [pg/mL], Mean / IL-6 [pg/mL], individual value / IL-8 % reduction / IL-8 [pg/mL], Mean / IL-8 [pg/mL], individual value / TNF-α % reduction / TNF-α [pg/mL], Mean / TNF-α [pg/mL], individual value: LPS-stimulated human PBMC supernatant

C[C@@H]1C[C@H]2[C@@H]3CCC4=CC(=O)C=C[C@]4(C)[C@@]3(F)[C@@H](O)C[C@]2(C)[C@@]1(O)C(=O)CO [Dexamethasone]
IL-1β % reduction (0.0003 µM): -0.241% | IL-1β [pg/mL], Mean (0.0003 µM): 12816 pg/mL | IL-1β [pg/mL], individual value (0.0003 µM): 13584 pg/mL and 12048 pg/mL | IL-6 % reduction (0.0003 µM): 11% | IL-6 [pg/mL], Mean (0.0003 µM): 31175 pg/mL | IL-6 [pg/mL], individual value (0.0003 µM): 28443 pg/mL and 33908 pg/mL | IL-8 % reduction (0.0003 µM): 3.74% | IL-8 [pg/mL], Mean (0.0003 µM): 2934 pg/mL | IL-8 [pg/mL], individual value (0.0003 µM): 2852 pg/mL and 3016 pg/mL | TNF-α % reduction (0.0003 µM): -22% | TNF-α [pg/mL], Mean (0.0003 µM): 10856 pg/mL | TNF-α [pg/mL], individual value (0.0003 µM): 11484 pg/mL and 10228 pg/mL | IL-1β % reduction (0.001 µM): -2.29% | IL-1β [pg/mL], Mean (0.001 µM): 13078 pg/mL | IL-1β [pg/mL], individual value (0.001 µM): 12492 pg/mL and 13663 pg/mL | IL-6 % reduction (0.001 µM): 15% | IL-6 [pg/mL], Mean (0.001 µM): 29537 pg/mL | IL-6 [pg/mL], individual value (0.001 µM): 27758 pg/mL and 31316 pg/mL | IL-8 % reduction (0.001 µM): 7% | IL-8 [pg/mL], Mean (0.001 µM): 2887 pg/mL | IL-8 [pg/mL], individual value (0.001 µM): 2894 pg/mL and 2879 pg/mL | TNF-α % reduction (0.001 µM): 26% | TNF-α [pg/mL], Mean (0.001 µM): 6648 pg/mL | TNF-α [pg/mL], individual value (0.001 µM): 6422 pg/mL and 6874 pg/mL | IL-1β % reduction (0.003 µM): 3% | IL-1β [pg/mL], Mean (0.003 µM): 12382 pg/mL | IL-1β [pg/mL], individual value (0.003 µM): 12441 pg/mL and 12322 pg/mL | IL-6 % reduction (0.003 µM): 23% | IL-6 [pg/mL], Mean (0.003 µM): 26733 pg/mL | IL-6 [pg/mL], individual value (0.003 µM): 25302 pg/mL and 28163 pg/mL | IL-8 % reduction (0.003 µM): 16% | IL-8 [pg/mL], Mean (0.003 µM): 2739 pg/mL | IL-8 [pg/mL], individual value (0.003 µM): 2727 pg/mL and 2751 pg/mL | TNF-α % reduction (0.003 µM): 36% | TNF-α [pg/mL], Mean (0.003 µM): 5707 pg/mL | TNF-α [pg/mL], individual value (0.003 µM): 6398 pg/mL and 5017 pg/mL | IL-1β % reduction (0.01 µM): 12% | IL-1β [pg/mL], Mean (0.01 µM): 11212 pg/mL | IL-1β [pg/mL], individual value (0.01 µM): 11146 pg/mL and 11278 pg/mL | IL-6 % reduction (0.01 µM): 26% | IL-6 [pg/mL], Mean (0.01 µM): 25776 pg/mL | IL-6 [pg/mL], individual value (0.01 µM): 24216 pg/mL and 27336 pg/mL | IL-8 % reduction (0.01 µM): 23% | IL-8 [pg/mL], Mean (0.01 µM): 2621 pg/mL | IL-8 [pg/mL], individual value (0.01 µM): 2587 pg/mL and 2655 pg/mL | TNF-α % reduction (0.01 µM): 34% | TNF-α [pg/mL], Mean (0.01 µM): 5893 pg/mL | TNF-α [pg/mL], individual value (0.01 µM): 5929 pg/mL and 5857 pg/mL | IL-1β % reduction (0.03 µM): 36% | IL-1β [pg/mL], Mean (0.03 µM): 8206 pg/mL | IL-1β [pg/mL], individual value (0.03 µM): 8428 pg/mL and 7983 pg/mL | IL-6 % reduction (0.03 µM): 46% | IL-6 [pg/mL], Mean (0.03 µM): 19008 pg/mL | IL-6 [pg/mL], individual value (0.03 µM): 18119 pg/mL and 19897 pg/mL | IL-8 % reduction (0.03 µM): 24% | IL-8 [pg/mL], Mean (0.03 µM): 2601 pg/mL | IL-8 [pg/mL], individual value (0.03 µM): 2572 pg/mL and 2630 pg/mL | TNF-α % reduction (0.03 µM): 61% | TNF-α [pg/mL], Mean (0.03 µM): 3547 pg/mL | TNF-α [pg/mL], individual value (0.03 µM): 4619 pg/mL and 2475 pg/mL | IL-1β % reduction (0.1 µM): 49% | IL-1β [pg/mL], Mean (0.1 µM): 6554 pg/mL | IL-1β [pg/mL], individual value (0.1 µM): 6360 pg/mL and 6748 pg/mL | IL-6 % reduction (0.1 µM): 46% | IL-6 [pg/mL], Mean (0.1 µM): 18754 pg/mL | IL-6 [pg/mL], individual value (0.1 µM): 18604 pg/mL and 18905 pg/mL | IL-8 % reduction (0.1 µM): 39% | IL-8 [pg/mL], Mean (0.1 µM): 2364 pg/mL | IL-8 [pg/mL], individual value (0.1 µM): 2111 pg/mL and 2616 pg/mL | TNF-α % reduction (0.1 µM): 76% | TNF-α [pg/mL], Mean (0.1 µM): 2172 pg/mL | TNF-α [pg/mL], individual value (0.1 µM): 1964 pg/mL and 2380 pg/mL | IL-1β % reduction (0.3 µM): 47% | IL-1β [pg/mL], Mean (0.3 µM): 6792 pg/mL | IL-1β [pg/mL], individual value (0.3 µM): 7094 pg/mL and 6491 pg/mL | IL-6 % reduction (0.3 µM): 53% | IL-6 [pg/mL], Mean (0.3 µM): 16544 pg/mL | IL-6 [pg/mL], individual value (0.3 µM): 15027 pg/mL and 18061 pg/mL | IL-8 % reduction (0.3 µM): 26% | IL-8 [pg/mL], Mean (0.3 µM): 2569 pg/mL | IL-8 [pg/mL], individual value (0.3 µM): 2679 pg/mL and 2458 pg/mL | TNF-α % reduction (0.3 µM): 67% | TNF-α [pg/mL], Mean (0.3 µM): 2969 pg/mL | TNF-α [pg/mL], individual value (0.3 µM): 3059 pg/mL and 2880 pg/mL | IL-1β % reduction (1 µM): 47% | IL-1β [pg/mL], Mean (1 µM): 6720 pg/mL | IL-1β [pg/mL], individual value (1 µM): 7115 pg/mL and 6325 pg/mL | IL-6 % reduction (1 µM): 53% | IL-6 [pg/mL], Mean (1 µM): 16339 pg/mL | IL-6 [pg/mL], individual value (1 µM): 14576 pg/mL and 18103 pg/mL | IL-8 % reduction (1 µM): 46% | IL-8 [pg/mL], Mean (1 µM): 2244 pg/mL | IL-8 [pg/mL], individual value (1 µM): 2290 pg/mL and 2198 pg/mL | TNF-α % reduction (1 µM): 74% | TNF-α [pg/mL], Mean (1 µM): 2402 pg/mL | TNF-α [pg/mL], individual value (1 µM): 1732 pg/mL and 3073 pg/mL | all measured LPS-induced cytokines and chemokines in supernatant (human PBMCs, 0.0003-1 µM): dose-dependent reductions
